Reference: PubChem BioAssay AID194 (DTP/NCI, 2004)
“And” between values parts separate entries of the source, which are not always exact repeats. Equal entries are not always repeated. Records with an inconclusive call do not appear.

Tested on: BDF1 mice, B16 melanoma s.c., survival/tumor T/C
Assay: NCI In Vivo Anticancer Drug Screen. Data for tumor model B16 Melanoma (subcutaneous) in B6D2F1 (BDF1) mice
Description: The antitumor activity of compounds was measured in mice bearing transplantable tumors. Survival or tumor size were measured and the results are expressed as the measurement made in the treated group (T) divided by the measurement made in the vehicle treated control group (C). The tumor model used in this assay is B16 Melanoma (subcutaneous) in B6D2F1 (BDF1) mice

With `S=c1nc[nH]c2nc[nH]c12` the T/C (endpoint: median survival time, dose: 12.5 mg/kg/injection, schedule: Q01DX009 (ip), vehicle: Klucel (hydroxypropylcellulose) (HPC), higher = longer survival) was 103 % of control and 118 % of control, the T/C (endpoint: median survival time, dose: 25.0 mg/kg/injection, schedule: Q01DX009 (ip), vehicle: saline with Tween-80, higher = longer survival) was 100 % of control and the T/C (endpoint: median survival time, dose: 50.0 mg/kg/injection, schedule: Q01DX009 (ip), vehicle: saline with Tween-80, higher = longer survival) was 100 % of control. For the same compound, the T/C (endpoint: median survival time, dose: 100.0 mg/kg/injection, schedule: Q01DX009 (ip), vehicle: saline with Tween-80, higher = longer survival) was 93 % of control, the T/C (endpoint: median tumor weight (est.), dose: 25.0 mg/kg/injection, schedule: Q01DX009 (ip), vehicle: saline with Tween-80, higher = larger tumour) was 103 % of control and the T/C (endpoint: median tumor weight (est.), dose: 50.0 mg/kg/injection, schedule: Q01DX009 (ip), vehicle: saline with Tween-80, higher = larger tumour) was 91 % of control.
`CN[C@H]1CCc2cc(OC)c(OC)c(OC)c2-c2ccc(OC)c(=O)cc21` was tested, and the T/C (endpoint: median survival time, dose: 1.25 mg/kg/injection, schedule: Q01DX009 (ip), vehicle: saline, higher = longer survival) was 109 % of control, the T/C (endpoint: median survival time, dose: 2.5 mg/kg/injection, schedule: Q01DX009 (ip), vehicle: saline, higher = longer survival) was 95 % of control and the T/C (endpoint: median survival time, dose: 10.0 mg/kg/injection, schedule: Q01DX009 (ip), vehicle: saline, higher = longer survival) was 111 % of control.
With `CCCCS(=O)CC(CO)NC(=O)/C=C/c1c(C)[nH]c(=O)[nH]c1=O` (centres undefined) the T/C (endpoint: median survival time, dose: 1.25 mg/kg/injection, schedule: Q01DX009 (ip), vehicle: water, higher = longer survival) was 100 % of control, the T/C (endpoint: median survival time, dose: 5.0 mg/kg/injection, schedule: Q01DX009 (ip), vehicle: water, higher = longer survival) was 100 % of control and the T/C (endpoint: median survival time, dose: 10.0 mg/kg/injection, schedule: Q01DX009 (ip), vehicle: water, higher = longer survival) was 116 % of control.
With `O=C1c2ccccc2C(=O)c2c(NCCNCCO)ccc(NCCNCCO)c21` the T/C (endpoint: median survival time, dose: 0.5 mg/kg/injection, schedule: Q01DX009 (ip), vehicle: saline with Tween-80, higher = longer survival) was 106 % of control and 119 % of control, the T/C (endpoint: median survival time, dose: 0.5 mg/kg/injection, schedule: Q01DX009 (ip), vehicle: saline, higher = longer survival) was 111 % of control and the T/C (endpoint: median survival time, dose: 1.0 mg/kg/injection, schedule: Q01DX009 (ip), vehicle: saline with Tween-80, higher = longer survival) was 93 % of control and 115 % of control. For the same compound, the T/C (endpoint: median survival time, dose: 1.0 mg/kg/injection, schedule: Q01DX009 (ip), vehicle: saline, higher = longer survival) was 104 % of control and 110 % of control, the T/C (endpoint: median survival time, dose: 1.0 mg/kg/injection, schedule: Q02DX009 (ip), vehicle: saline, higher = longer survival) was 100 % of control and the T/C (endpoint: median survival time, dose: 2.0 mg/kg/injection, schedule: Q01DX009 (ip), vehicle: saline with Tween-80, higher = longer survival) was 101 % of control and 108 % of control. The T/C (endpoint: median survival time, dose: 2.0 mg/kg/injection, schedule: Q01DX009 (ip), vehicle: saline, higher = longer survival) was 100 % of control and 104 % of control and 107 % of control, the T/C (endpoint: median survival time, dose: 4.0 mg/kg/injection, schedule: Q01DX009 (ip), vehicle: saline, higher = longer survival) was 92 % of control and the T/C (endpoint: median survival time, dose: 4.0 mg/kg/injection, schedule: Q02DX009 (ip), vehicle: Klucel (hydroxypropylcellulose) (HPC), higher = longer survival) was 94 % of control. For the same compound, the T/C (endpoint: median survival time, dose: 4.0 mg/kg/injection, schedule: Q02DX009 (ip), vehicle: saline, higher = longer survival) was 154 % of control, the T/C (endpoint: median survival time, dose: 8.0 mg/kg/injection, schedule: Q01DX009 (ip), vehicle: Klucel (hydroxypropylcellulose) (HPC), higher = longer survival) was 104 % of control and the T/C (endpoint: median survival time, dose: 8.0 mg/kg/injection, schedule: Q01DX009 (ip), vehicle: saline, higher = longer survival) was 107 % of control. The T/C (endpoint: median survival time, dose: 8.0 mg/kg/injection, schedule: Q02DX009 (ip), vehicle: Klucel (hydroxypropylcellulose) (HPC), higher = longer survival) was 117 % of control, the T/C (endpoint: median survival time, dose: 8.0 mg/kg/injection, schedule: Q02DX009 (ip), vehicle: saline, higher = longer survival) was 110 % of control and the T/C (endpoint: median survival time, dose: 8.0 mg/kg/injection, schedule: Q02DX009 (ip), vehicle: water, higher = longer survival) was 107 % of control. The T/C (endpoint: median survival time, dose: 13.0 mg/kg/injection, schedule: Q01DX009 (ip), vehicle: Klucel (hydroxypropylcellulose) (HPC), higher = longer survival) was 104 % of control, the T/C (endpoint: median survival time, dose: 16.0 mg/kg/injection, schedule: Q01DX009 (ip), vehicle: Klucel (hydroxypropylcellulose) (HPC), higher = longer survival) was 152 % of control and the T/C (endpoint: median survival time, dose: 16.0 mg/kg/injection, schedule: Q01DX009 (ip), vehicle: saline, higher = longer survival) was 117 % of control. For the same compound, the T/C (endpoint: median survival time, dose: 16.0 mg/kg/injection, schedule: Q02DX009 (ip), vehicle: Klucel (hydroxypropylcellulose) (HPC), higher = longer survival) was 113 % of control, the T/C (endpoint: median survival time, dose: 16.0 mg/kg/injection, schedule: Q02DX009 (ip), vehicle: water, higher = longer survival) was 95 % of control and 106 % of control and the T/C (endpoint: median survival time, dose: 43.0 mg/kg/injection, schedule: Q04DX003 (ip), vehicle: Klucel (hydroxypropylcellulose) (HPC), higher = longer survival) was 97 % of control. The T/C (endpoint: median survival time, dose: 74.0 mg/kg/injection, schedule: Q01DX001 (ip), vehicle: Klucel (hydroxypropylcellulose) (HPC), higher = longer survival) was 91 % of control, the T/C (endpoint: median tumor weight (est.), dose: 13.0 mg/kg/injection, schedule: Q01DX009 (ip), vehicle: Klucel (hydroxypropylcellulose) (HPC), higher = larger tumour) was 64 % of control and the T/C (endpoint: median tumor weight (est.), dose: 43.0 mg/kg/injection, schedule: Q04DX003 (ip), vehicle: Klucel (hydroxypropylcellulose) (HPC), higher = larger tumour) was 52 % of control.
In the case of `CS(C)=O`, the T/C (endpoint: median survival time, dose: 1.5 grams/kg/injection, schedule: Q01DX009 (ip), vehicle: saline, higher = longer survival) is reported as 105 % of control, the T/C (endpoint: median survival time, dose: 3.0 grams/kg/injection, schedule: Q01DX009 (ip), vehicle: saline, higher = longer survival) is reported as 109 % of control and 111 % of control and the T/C (endpoint: median survival time, dose: 6.0 grams/kg/injection, schedule: Q01DX009 (ip), vehicle: saline, higher = longer survival) is reported as 96 % of control and 108 % of control.
